What all share (format): functional, cell-based
Assay [1] relates to PBMC. The experiment in a line: Antiinflammatory activity in human PBMC assessed as inhibition of LPS-induced IL-1beta expression pretreated 1 hr before LPS challenge followed by incubated for 16 hrs by flow cytometry. On the technique in general: Flow cytometry measures light scatter and fluorescence of single cells or particles in a stream.
In assay [2] the test system is PBMC. In words: Antiinflammatory activity in human PBMC assessed as inhibition of LPS-induced IL-8 expression pretreated 1 hr before LPS challenge followed by incubated for 16 hrs by flow cytometry.
The test system of assay [3] is PBMC. In words: Antiinflammatory activity in human PBMC assessed as inhibition of LPS-induced TNFalpha expression pretreated 1 hr before LPS challenge followed by incubated for 16 hrs by flow cytometry.

Usually IC50 stands for the point on the concentration scale where inhibition reaches its midpoint. In the case of `C=C[C@]1(C)C=C2C(=O)C[C@H]3[C@@](C)(CCC[C@@]3(C)C(=O)O)[C@@H]2CC1`, the values for the IC50 in assay [1], in assay [2] and in assay [3] were 30 nM, above 10000 nM and 7 nM, respectively.
The corresponding values for `C[C@@H]1C[C@H]2[C@@H]3CCC4=CC(=O)C=C[C@]4(C)[C@@]3(F)[C@@H](O)C[C@]2(C)[C@@]1(O)C(=O)CO` [DEXAMETHASONE] are 8 nM, 9 nM and 2 nM.
The matching figures for `C[C@@]12CCC[C@@](C)(C(=O)O)[C@H]1CC(=O)[C@]13C[C@@H](CO)[C@H](CC[C@H]12)C3`: 100 nM, above 10000 nM and 100 nM.
The matching figures for `C[C@@]12CCC[C@@](C)(C(=O)O)[C@H]1CC(=O)[C@@]13C[C@@H](CC[C@H]12)[C@H](O)C3`: 4 nM, above 10000 nM and 20 nM.
Take `C=C1C[C@@]23CC[C@H]4[C@@](C)(CCC[C@@]4(C)C(=O)O)[C@@H]2CC[C@@H]1C3` [KAURENOIC ACID]: the half-maximal inhibitory concentration (IC50) in assay [1] was determined as 10 nM; in assay [2], 7700 nM; in assay [3], 2 nM.
The corresponding values for `Cc1cc(O)c2c(c1O)C(=O)C[C@@H]1[C@](C)(C(=O)O)CCC[C@@]21C` are above 10000 nM, above 10000 nM and 8 nM.
With `COC(=O)[C@]1(C)CCC[C@@]2(C)[C@@H]3CC[C@@H]4C[C@]3(C=C4C=O)CC[C@@H]21`, the 50% inhibitory concentration (IC50) in assay [1] was determined as 5 nM; in assay [2] it was 6 nM; in assay [3] it was 400 nM.
The matching figures for `C[C@@]12CCC[C@@](C)(C(=O)O)[C@H]1CC(=O)[C@]13CC(=O)[C@H](CC[C@H]12)C3`: 1 nM, above 10000 nM and 2 nM.
The corresponding values for `C[C@]12CCC3=C(CC[C@@H]4[C@](C)(C(=O)O)CCC[C@@]34C)[C@H]1OC[C@@H]2O` are above 10000 nM, 1 nM and above 10000 nM.
The matching figures for `C[C@@]12CCC[C@@](C)(C(=O)O)[C@H]1CC[C@@]13C[C@@H](CC[C@@H]21)[C@]1(CO)O[C@H]31`: 100 nM, above 10000 nM and 60 nM.
Consider `C[C@@]12CCC[C@@](C)(C(=O)O)[C@H]1CC[C@]13C=C(C(=O)O)[C@H](CC[C@H]12)C3`, for which the 50% inhibitory concentration (IC50) in assay [1] came to 7500 nM; in assay [2], 3 nM; in assay [3], 2100 nM.
The corresponding values for `C[C@@]12CCC[C@@](C)(C(=O)O)[C@H]1CC[C@]13C=C(CO)[C@H](CC[C@H]12)C3` are 800 nM, above 10000 nM and 10 nM.

The values above are taken from ChEMBL document CHEMBL3351835, “Anti-inflammatory diterpenoids from the root bark of Acanthopanax gracilistylus” (J Nat Prod, 2014).
